In patent publication US10030047B2 (Hoffmann-La Roche Inc., priority 2015, dated 2018):

Tested on: A. baumannii strain ATCC17978
Assay: 50% growth inhibitory concentration (IC50) determination, Iso-Sensitest broth
Type: cell-based
Conditions: Acinetobacter baumannii, ATCC17978, 16 h, read-out: IC50 ATCC17978
Protocol: The in vitro antimicrobial activity of the compounds was alternatively determined according to the following procedure:
The assay used a 10-points Iso-Sensitest broth medium to measure quantitatively the in vitro activity of the compounds against A. baumannii ATCC 17978.
Stock compounds in DMSO were serially twofold diluted (e.g. range from 50 to 0.097 μM final concentration) in 384 wells microtiter plates and inoculated with 49 μl the bacterial suspension in Iso-Sensitest medium to have a final cell concentration of ˜5×10^(5) CFU/ml in a final volume/well of 50 ul/well. Microtiter plates were incubated at 35±2° C.
Bacterial cell growth was determined with the measurement of optical density at λ=600 nm each 20 minutes over a time course of 16 h.
Growth inhibition was calculated during the logarithmic growth of the bacterial cells with determination of the concentration inhibiting 50% (IC50) and 90% (IC90) of the growth.
Tables 3, 4 and 5 provide the 50% growth inhibitory concentrations (IC50) in micromoles per liter of the compounds of present invention obtained against the A. baumannii strain ATCC17978.

Row | SMILES | IC50
1 | CN1C(=O)[C@H](CCCCN)NC(=O)[C@H](CCCN)NCc2cccnc2Sc2c(Cl)ccc(-c3ccc(C(=O)O)cc3)c2CNC(=O)[C@@H]1Cc1c[nH]c2ccccc12 [Example 239, 4-[(11S,14S,17S)-14-(4-Amino-butyl)-11-(3-amino-propyl)-25-chloro-17-(1H-indol-3-ylmethyl)-16-methyl-12,15,18-trioxo-2-thia-4,10,13,16,19-pentaaza-tricyclo[19.4.0.0*3,8*]pentacosa-1 (25),3(8),4,6,21,23-hexaen-22-yl]-benzoic acid] | < 1000 nM

Same assay, conditions: Acinetobacter baumannii; A. baumannii ATCC17978; Iso-Sensitest medium; OD 600 nm over 16 h; read-out: IC50 ATCC17978

Row | SMILES | IC50
2 | CN1C(=O)[C@H](CCCCN)NC(=O)[C@H](CCCN)NCc2cc(-c3ccc(CN)cc3)ccc2Sc2c(Cl)cccc2CNC(=O)[C@@H]1Cc1c[nH]c2ccccc12 [Example 216, (12S,15S,18S)-15-(4-Amino-butyl)-23-(4-aminomethyl-phenyl)-18-(3-amino-propyl)-4-chloro-12-(1H-indol-3-ylmethyl)-13-methyl-2-thia-10,13,16,19-tetraaza-tricyclo[19.4.0.0*3,8*]pentacosa-1(25),3,5,7,21,23-hexaene-11,14,17-trione] | 700 nM
3 | COc1cc(-c2ccc3c(n2)CNC(=O)[C@H](Cc2c[nH]c4ccccc24)N(C)C(=O)[C@H](CCCCN)NC(=O)[C@H](CCCN)NCc2cccnc2S3)ccn1 [Example 217, (7S,10S,13S)-13-((1H-Indol-3-yl)methyl)-10-(4-aminobutyl)-7-(3-aminopropyl)-18-(2-methoxypyridin-4-yl)-12-methyl-6,7,9,10,12,13,15,16-octahydrodipyrido[2,3-b:2′,3′-p][1,5,8,11,14]thiatetraazacycloheptadecine-8,11,14(5H)-trione] | 1000 nM
4 | CN1C(=O)[C@H](CCCCN)NC(=O)[C@H](CCCN)NCc2cccnc2Sc2ccc(N3CCOCC3)nc2CNC(=O)[C@@H]1Cc1c[nH]c2ccccc12 [Example 218, (7S,10S,13S)-13-((1H-Indol-3-yl)methyl)-10-(4-aminobutyl)-7-(3-aminopropyl)-12-methyl-18-morpholino-6,7,9,10,12,13,15,16-octahydrodipyrido[2,3-b:2′,3′-p][1,5,8,11,14]thiatetraazacycloheptadecine-8,11,14(5H)-trione] | 2000 nM
5 | CN1C(=O)[C@H](CCCCN)NC(=O)[C@H](CCCN)NCc2ccc(Br)cc2Sc2c(Cl)cccc2CNC(=O)[C@@H]1Cc1c[nH]c2ccccc12 [Example 219, (12S,15S,18S)-15-(4-Amino-butyl)-18-(3-amino-propyl)-24-bromo-4-chloro-12-(1H-indol-3-ylmethyl)-13-methyl-2-thia-10,13,16,19-tetraaza-tricyclo[19.4.0.0*3,8*]pentacosa-1(25),3,5,7,21,23-hexaene-11,14,17-trione] | 600 nM
6 | CN1C(=O)[C@H](CCCCN)NC(=O)[C@H](CCCN)NCc2ccc(-c3ccccc3)cc2Sc2c(Cl)cccc2CNC(=O)[C@@H]1Cc1c[nH]c2ccccc12 [Example 220, (12S,15S,18S)-15-(4-Amino-butyl)-18-(3-amino-propyl)-4-chloro-12-(1H-indol-3-ylmethyl)-13-methyl-24-phenyl-2-thia-10,13,16,19-tetraaza-tricyclo[19.4.0.0*3,8*]pentacosa-1(25),3,5,7,21,23-hexaene-11,14,17-trione] | 5800 nM
7 | CN1C(=O)[C@H](CCCCN)NC(=O)[C@H](CCCN)NCc2cc(Br)cnc2Sc2ccccc2CNC(=O)[C@@H]1Cc1c[nH]c2ccccc12 [Example 236, (7S,10S,13S)-13-((1H-Indol-3-yl)methyl)-10-(4-aminobutyl)-7-(3-aminopropyl)-3-bromo-12-methyl-6,7,9,10,12,13,15,16-octahydrobenzo[b]pyrido[3,2-p][1,5,8,11,14]thiatetraazacycloheptadecine-8,11,14(5H)-trione] | 3200 nM
8 | CN(C)c1nccc2c1CNC(=O)[C@H](Cc1c[nH]c3ccccc13)N(C)C(=O)[C@H](CCCCN)NC(=O)[C@H](CCCN)NCc1cccnc1S2 [Example 237, (7S,10S,13S)-13-((1H-Indol-3-yl)methyl)-10-(4-aminobutyl)-7-(3-aminopropyl)-17-(dimethylamino)-12-methyl-6,7,9,10,12,13,15,16-octahydrodipyrido [2,3-b:3′,4′-p][1,5,8,11,14]thiatetraazacycloheptadecine-8,11,14(5H)-trione] | 800 nM
9 | CN1C(=O)[C@H](CCCCN)NC(=O)[C@H](CCCN)NCc2cccnc2Sc2ccnc(-c3cccnc3)c2CNC(=O)[C@@H]1Cc1c[nH]c2ccccc12 [Example 238, (7S,10S,13S)-13-((1H-Indol-3-yl)methyl)-10-(4-aminobutyl)-7-(3-aminopropyl)-12-methyl-17-(pyridin-3-yl)-6,7,9,10,12,13,15,16-octahydrodipyrido[2,3-b:3′,4′-p][1,5,8,11,14]thiatetraazacycloheptadecine-8,11,14(5H)-trione] | 5600 nM
10 | CN1C(=O)[C@H](CCCCN)NC(=O)[C@H](CCCN)NCc2cccnc2Sc2c(Cl)ccc(-c3ccc(OCC(O)CO)cc3)c2CNC(=O)[C@@H]1Cc1c[nH]c2ccccc12 (stereo partly drawn) [Example 240, (11S,14S,17S)-14-(4-Amino-butyl)-11-(3-amino-propyl)-25-chloro-22-[4-(2,3-dihydroxy-propoxy)-phenyl]-17-(1H-indol-3-ylmethyl)-16-methyl-2-thia-4,10,13,16,19-pentaaza-tricyclo[19.4.0.0*3,8*]pentacosa-1(25),3(8),4,6,21,23-hexaene-12,15,18-trione] | < 100 nM
11 | CN1C(=O)[C@H](CCCCN)NC(=O)[C@H](CCCN)NCc2cccnc2Sc2c(Cl)ccc(-c3ccc(OCC(=O)O)cc3)c2CNC(=O)[C@@H]1Cc1c[nH]c2ccccc12 [Example 241, {4-[(11S,14S,17S)-14-(4-Amino-butyl)-11-(3-amino-propyl)-25-chloro-17-(1H-indol-3-ylmethyl)-16-methyl-12,15,18-trioxo-2-thia-4,10,13,16,19-pentaaza-tricyclo[19.4.0.0*3,8*]pentacosa-1(25),3(8),4,6,21,23-hexaen-22-yl]-phenoxy}-acetic acid] | < 200 nM
12 | CN1C(=O)[C@H](CCCCN)NC(=O)[C@H](CCCN)NCc2cccnc2Sc2c(Cl)ccc(-c3ccc(OC4CCNCC4)cc3)c2CNC(=O)[C@@H]1Cc1c[nH]c2ccccc12 [Example 242, (11S,14S,17S)-14-(4-Amino-butyl)-11-(3-amino-propyl)-25-chloro-17-(1H-indol-3-ylmethyl)-16-methyl-22-[4-(piperidin-4-yloxy)-phenyl]-2-thia-4,10,13,16,19-pentaaza-tricyclo[19.4.0.0*3,8*]pentacosa-1(25),3(8),4,6,21,23-hexaene-12,15,18-trione] | < 200 nM
13 | CN1C(=O)[C@H](CCCCN)NC(=O)[C@H](CCCN)NCc2cccnc2Sc2c(Cl)ccc(-c3ccc(CN)cc3)c2CNC(=O)[C@@H]1Cc1c[nH]c2ccccc12 [Example 243, (11S,14S,17S)-14-(4-Amino-butyl)-22-(4-aminomethyl-phenyl)-11-(3-amino-propyl)-25-chloro-17-(1H-indol-3-ylmethyl)-16-methyl-2-thia-4,10,13,16,19-pentaaza-tricyclo[19.4.0.0*3,8*]pentacosa-1(25),3(8),4,6,21,23-hexaene-12,15,18-trione] | < 100 nM
14 | CN1C(=O)[C@H](CCCCN)NC(=O)[C@H](CCCN)NCc2cccnc2Sc2c(Cl)ccc(-c3cccc(CCN)c3)c2CNC(=O)[C@@H]1Cc1c[nH]c2ccccc12 [Example 244, (11S,14S,17S)-14-(4-Amino-butyl)-22-[3-(2-amino-ethyl)-phenyl]-11-(3-amino-propyl)-25-chloro-17-(1H-indol-3-ylmethyl)-16-methyl-2-thia-4,10,13,16,19-pentaaza-tricyclo[19.4.0.0*3,8*]pentacosa-1(25),3(8),4,6,21,23-hexaene-12,15,18-trione] | < 400 nM
15 | CN1C(=O)[C@H](CCCCN)NC(=O)[C@H](CCCN)NCc2cccnc2Sc2c(Cl)ccc(-c3ccc(N4CCNCC4)cc3)c2CNC(=O)[C@@H]1Cc1c[nH]c2ccccc12 [Example 245, (11S,14S,17S)-14-(4-Amino-butyl)-11-(3-amino-propyl)-25-chloro-17-(1H-indol-3-ylmethyl)-16-methyl-22-(4-piperazin-1-yl-phenyl)-2-thia-4,10,13,16,19-pentaaza-tricyclo[19.4.0.0*3,8*]pentacosa-1(25),3(8),4,6,21,2-hexaene-12,15,18-trione] | < 100 nM
16 | CN1C(=O)[C@H](CCCCN)NC(=O)[C@H](CCCN)NCc2cccnc2Sc2c(Cl)ccc(-c3ccc(S(=O)(=O)NCCO)cc3)c2CNC(=O)[C@@H]1Cc1c[nH]c2ccccc12 [Example 246, 4-[(11S,14S,17S)-14-(4-Amino-butyl)-11-(3-amino-propyl)-25-chloro-17-(1H-indol-3-ylmethyl)-16-methyl-12,15,18-trioxo-2-thia-4,10,13,16,19-pentaaza-tricyclo[19.4.0.0*3,8*]pentacosa-1(25),3(8),4,6,21,23-hexaen-22-yl]-N-(2-hydroxy-ethyl)-benzenesulfonamide] | < 100 nM
17 | CN1C(=O)[C@H](CCCCN)NC(=O)[C@H](CCCN)NCc2cccnc2Sc2c(Cl)ccc(-c3ccc(C(=O)NCCO)cc3)c2CNC(=O)[C@@H]1Cc1c[nH]c2ccccc12 [Example 247, 4-[(11S,14S,17S)-14-(4-Amino-butyl)-11-(3-amino-propyl)-25-chloro-17-(1H-indol-3-ylmethyl)-16-methyl-12,15,18-trioxo-2-thia-4,10,13,16,19-pentaaza-tricyclo[19.4.0.0*3,8*]pentacosa-1(25),3(8),4,6,21,23-hexaen-22-yl]-N-(2-hydroxy-ethyl)-benzamide] | < 100 nM
